The source of these data is publication PMC11704350 (2025).

Experiment [1] deals with Nrf2C (DNA, i motif) CCCTCCCGCCCTTGCTCCCTTCCC
The experiment can be described thus: fluorescent indicator displacement. Conditions: 100 mM KCl, 10 mM sodium cacodylate pH 6.5, room temperature, thiazole orange displaced.

In experiment [2] the test system is Nrf2G (DNA, G4) GGGAAGGGAGCAAGGGCGGGAGGG
As to the kind of experiment: CD melting (264 nm). The conditions noted are these: 100 mM KCl, 10 mM sodium cacodylate pH 6.5, 50 µM ligand, 10 µM DNA.

For experiment [3], the system named is DS (DNA, duplex) GGCATAGTGCGTGGGCGTTAGC/GCTAACGCCCACGCACTATGCC
As to the kind of experiment: CD melting (253 nm). Conditions: 100 mM KCl; 10 mM sodium cacodylate pH 6.5; 50 µM ligand, 10 µM DNA.

Experiment [4] relates to Nrf2C (DNA, i motif) CCCTCCCGCCCTTGCTCCCTTCCC
As to the kind of experiment: UV titration (ligand absorbance). Conditions: 100 mM KCl, 10 mM sodium cacodylate pH 6.5, DNA up to 50 µM.

Experiment [5] deals with Nrf2G (DNA, G4) GGGAAGGGAGCAAGGGCGGGAGGG
The experiment can be described thus: UV titration (ligand absorbance). The conditions noted are these: 100 mM KCl, 10 mM sodium cacodylate pH 6.5, DNA up to 50 µM.

Experiment [6] deals with DS (DNA, duplex) GGCATAGTGCGTGGGCGTTAGC/GCTAACGCCCACGCACTATGCC
The experiment can be described thus: UV titration (ligand absorbance). The conditions noted are these: 100 mM KCl, 10 mM sodium cacodylate pH 6.5, DNA up to 50 µM.

The test system of experiment [7] is hTeloC (DNA, i motif) TAACCCTAACCCTAACCCTAACCC
As to the kind of experiment: UV titration (ligand absorbance). The conditions noted are these: 100 mM KCl, 10 mM sodium cacodylate pH 6.5, DNA up to 50 µM.

The subject of experiment [8] is hTeloG (DNA, G4) GGGTTAGGGTTAGGGTTAGGGTTA
As to the kind of experiment: UV titration (ligand absorbance). The conditions noted are these: 100 mM KCl, 10 mM sodium cacodylate pH 6.5, DNA up to 50 µM.

Experiment [9] relates to DAPC (DNA, i motif) CCCCCGCCCCCGCCCCCGCCCCCGCCCCC
As to the kind of experiment: UV titration (ligand absorbance). The conditions noted are these: 100 mM KCl, 10 mM sodium cacodylate pH 6.5, DNA up to 50 µM.

The subject of experiment [10] is DAPG (DNA, G4) GGGGGCGGGGGCGGGGGCGGGGGCGGGGG
The experiment can be described thus: UV titration (ligand absorbance). Conditions: 100 mM KCl, 10 mM sodium cacodylate pH 6.5, DNA up to 50 µM.

In experiment [11] the test system is Nrf2C (DNA, i motif) CCCTCCCGCCCTTGCTCCCTTCCC
The experiment can be described thus: CD melting (288 nm). Conditions: 100 mM KCl; 10 mM sodium cacodylate pH 6.5; 50 µM ligand, 10 µM DNA.

[12] abbreviates: 0.5 µM DNA (legend; methods 1 µM).

The compound `C=Cc1cc(OC)c2c(c1)c(=O)oc1c2cc(OC)c2c(O)ccc(C3OC(C)C(O)C(C)(O)C3O)c21` (stereo not drawn) displayed a DC50 in experiment [1] (setting [12]) of 6.3 ± 0.6 µM.
Still for that read-out and setting: as for `CCC(=O)c1ccc(O)c(O)c1`, the figure is 1.5 ± 0.1 µM; as for `COc1cc(-c2ccc(Nc3ccccc3C(=O)O)c(OC)c2)ccc1Nc1ccccc1C(=O)O`, 2.3 ± 0.1 µM.
Same read-out and setting: as for `COc1cccc2c1C(=O)c1c(O)c3c(c(O)c1C2=O)C[C@@](O)(C(C)=NO)C[C@@H]3O[C@H]1C[C@H](N)[C@H](O)[C@H](C)O1`, the figure is 4.9 ± 1.5 µM; as for `Cc1c2ccncc2c(C)c2c1[nH]c1ccccc12`, 3.9 ± 1.0 µM; as for `Cc1cc2nc3ccc(N(C)C)cc3[s+]c2cc1N`, 16 ± 2.7 µM.
As to `Cc1ccc(NCCN(C)C)c2c(=O)c3cc(O)ccc3sc12`, the DC50 in [1] (setting [12]) stood at 3.4 ± 0.5 µM.
As to `Clc1c(Cl)c(Cl)c2[nH]nnc2c1Cl`, the DC50 in experiment [1] (setting [12]) stood at 3.2 ± 0.1 µM.
On to `Nc1ccc(-c2nc3nc(N)nc(N)c3nc2-c2ccc(N)cc2)cc1`, for which the DC50 in experiment [1] (setting [12]) is given as 12 ± 3.4 µM.
What is called ΔTm is the shift of the melting midpoint relative to a reference. As a reminder, the Kd is the equilibrium constant for the complex coming apart. A high value points to lower affinity. In the case of `O=C(Nc1ccc(Nc2ccncc2)cc1)c1ccc(Nc2ccnc3ccc([N+](=O)[O-])cc23)cc1[N+](=O)[O-]`, the shift in melting temperature (ΔTm) in experiment [2] (error ± 0.3) is 5 ± 1.0 °C; in experiment [3], 0 ± 0.7 °C. Further, the Kd in experiment [4] (ligand monitored at 320 nm) stood at 0.25 ± 0.1 µM; in [5] (ligand monitored at 320 nm), 0.6 ± 0.1 µM; in experiment [6] (ligand monitored at 320 nm) it was 1.9 ± 0.1 µM; in [7] (ligand monitored at 320 nm), 1.1 ± 0.2 µM; in experiment [8] (ligand monitored at 320 nm) it was 1.0 ± 0.1 µM; in [9] (ligand monitored at 320 nm) it was 0.9 ± 0.1 µM. The compound further displayed a dissociation constant (Kd) in experiment [10] (ligand monitored at 320 nm) of 1.6 ± 0.2 µM. The same compound displayed a DC50 in experiment [1] (poor ligand solubility) of more than 20 µM.
`O=C1c2cccc3cc([N+](=O)[O-])cc(c23)C(=O)N1CCN1CCCC1`: the thermal shift (ΔTm) was -1 ± 1.0 °C in experiment [11], 9 ± 0.3 °C in [2] and 9 ± 0.8 °C in experiment [3]. Moreover, the Kd in experiment [4] (ligand monitored at 335 nm) worked out at 20 ± 1.8 µM; in experiment [5] (ligand monitored at 335 nm), 6.6 ± 0.9 µM; in [6] (ligand monitored at 335 nm) it was 2.4 ± 0.2 µM; in [7] (ligand monitored at 335 nm), 10 ± 1.3 µM; in [8] (ligand monitored at 335 nm), 6.2 ± 0.4 µM; in [9] (ligand monitored at 335 nm), 6.0 ± 0.9 µM. Moreover, in experiment [10] (ligand monitored at 335 nm), the Kd is reported as 8.2 ± 0.7 µM. This compound also came in with a DC50 in [1] (setting [12]) of 13 ± 3.0 µM.
